Reference: patent US20040005294A1, “IGFBP-3 in the diagnosis and treatment of cancer” (priority 2002, published 2004)

Legend:
[1] = system: IGFBP-3 mRNA in H1299 cells; assay: Northern blot of IGFBP-3 expression after demethylating agent; type: cell-based, human; settings: 5 days, RPMI 1640 with 2% FCS
Procedure: NSCLC cell lines and H1299 cells treated with 0.1, 1, or 5 μM of 5-aza-dC (Sigma, St. Luois, Mo.) for 5 days in RPMI 1640 medium containing 2% FCS were lysed in 4.0 M guanidinium isothiocyanate, and total cellular RNA was extracted as described previously (Kim et al., 1995). 20 μg of RNA was subjected to electrophoresis on a 1% agarose gel containing 2% formaldehyde. After gels were soaked in 50 mM NaOH/1×standard saline citrate (SSC) for 20 min followed by 10×SSC for 20 min, RNA was transferred onto a Zeta-Probe membrane (Bio-Rad Laboratories, Hercules, Calif.) overnight by the capillary transfer method. Membranes were cross-linked and then incubated in the hybridization solution containing […] IGFBP-3 or glyceraldehyde-3-phosphate dehydrogenase (GAPDH) cDNA as a control. The probe was labeled using a Prime-It® II Random Primer Kit (Stratagene, La Jolla, Calif.) and harvested with MicroSpin™ S-300 HR Columns (Amersham Phamacia Biotech Inc., Piscataway, N.J.). After overnight incubation, membranes were washed in high stringency condition and exposed to enhanced chemiluminescence (ECL) films for autoradiography.

[2] = system: PI3K/Akt pathway in 1799 cells; assay: Immunoblot of pAkt and pGSK-3β, 1799 cells; type: cell-based, human; settings: 2-4 μM
Procedure: Whole cell lysates from 1×10^6 cells were prepared in lysis buffer as described (Lonardo et al., 2002). Equivalent amounts of protein were resolved by sodium dodecyl sulfate (SDS)-polyacrylamide gels (7.5%-12%) and transferred to a nitrocellulose membrane. After the membrane was blocked in Tris-buffered saline (TBS) containing 0.05% Tween 20 (TBST) and 5% (w/v) nonfat powdered milk, the membrane was incubated with primary antibody at the appropriate dilution in TBS-5% nonfat milk at 4° C. for 16 h. The membrane was then washed multiple times with TBST and incubated with the appropriate horseradish peroxidaseconjugated secondary antibody for 1 h at room temperature. The protein-antibody complexes were detected by enhanced chemilurminescence (ECL kit; Amersham, Arlington Heights, Ill.), according to the manufacturer's recommended protocol. […]

1799 cells = assay: MTT proliferation assay, 1799 cells; type: cell-based, human; settings: 2×10^−6 M or 4×10^−6 M, 2 days
Procedure: To measure the effects of deguelin on cell proliferation, NHBE, 1799, 1198, 1170-1, and HB56B cells were plated at concentrations of 2×10^3 to 4×10^3 cells/well in 96-well plates. The next day, cells were treated with either 0.1% DMSO as a diluent control or various concentrations of deguelin (final DMSO concentration=0.1%). At the end of the assay time period, cell proliferation was measured by the 3-(4,5-dimethylthiazol-2-yl)-2,5-diphenyltetrazolium bromide (MTT) assay as described (Lee et al., 2002). Six replicate wells were used for each analysis, and data from replicate wells are presented as means with 95% confidence intervals (CIs). For some experiments, the drug concentration required to inhibit cell growth by 50% (IC50) was determined by interpolation from dose-response curves. At least three independent experiments were performed.
To determine whether deguelin-induced antiproliferative effects on premalignant HBE cells were mediated through the inhibition of the PI3K/Akt pathway, 2×10^5 1799 cells/well or 1×10 ^6 squamous HBE cells/well in six-well plates were infected with 5×10 ^3 particles/cell of a control virus (Ad5CMV) or with 1×10^3 or 5×10^3 particles/cell of Ad5CMV-MyrAkt-HA, an adenoviral vector that expresses a constitutively active Akt. (MyrAkt) in KSFM. After 1 day of infection, cells were treated with 10^−7M or 10^−6M deguelin, 2×10^−6 M or 4×10^−6M N-(4-hydroxyphenyl)retinamide (4-HPR), or 0.1% DMSO as a control and then incubated for 1 or 2 days. Apoptosis was analyzed using the APO-BrdU staining kit for TUNEL, Western blot analyses for caspase-3, and the cleavage of PARP.

NSCLC cell lines = assay: MTT cell growth assay, NSCLC cell lines; type: cell-based, human; settings: serum-free medium, 3 days
Procedure: To measure the effects of IGF-I and IGF-II on proliferation of NSCLC cells, 2×10^3 NSCLC cell lines were incubated in serum-free medium containing 0.01-500 ng/ml IGF-I or IGF-II for 3 days. To measure the effects of Ad5CMV-BP-3 on proliferation of NHBE and NSCLC cell lines, these cells were seeded at 1×10^−2×10^3 cells/well in 96-well plates. After 1 day, cells were untreated or infected with 1×10^3, 5×10^3, or 1×10^4 particles/cell of Ad5CMV-BP3 or Ad5CMV (parental virus) as a viral control. Infection was allowed to occur for 2 h in the absence of serum, and infected cells were grown in medium containing 100 ng/ml or 250 ng/ml IGF-I. After 3 days of incubation, the growth of infected cells was measured by the 3-(4,5-dimethylthiazol-2-yl)-2,5-diphenyltetrazolium bromide (MTT) assay as previously described (Sueoka et al., 2000).

IGF-I = IGF-I (Homo sapiens, UniProt P05019); assay: Western ligand blot of conditioned media; type: binding; settings: conditioned media of Ad5CMV-BP3-infected H1299 cells, [125I]IGF-I probe
Sequence of IGF-I (P05019 49-118 limits assumed, species assumed): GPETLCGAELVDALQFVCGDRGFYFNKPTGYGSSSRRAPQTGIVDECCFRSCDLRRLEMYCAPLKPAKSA
Sequence of IGF-I (P17936 28-291 partner, species assumed): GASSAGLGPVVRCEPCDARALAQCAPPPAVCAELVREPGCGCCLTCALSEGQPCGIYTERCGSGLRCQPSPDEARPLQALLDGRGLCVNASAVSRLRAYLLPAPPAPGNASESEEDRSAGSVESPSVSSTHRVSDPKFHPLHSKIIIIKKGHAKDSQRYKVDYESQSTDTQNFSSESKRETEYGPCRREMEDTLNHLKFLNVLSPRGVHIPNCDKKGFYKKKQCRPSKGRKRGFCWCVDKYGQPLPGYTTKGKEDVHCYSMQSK
Procedure: Conditioned media were collected from H1299 cells after adenoviral infection. Western blot and Western ligand blot analyses were performed using 30 μg of whole cell lysate or 30 μl of conditioned media as previously described (Sueoka et al., 2000).

H1299 cells = assay: Apoptosis by APO-BRDU staining and flow cytometry; type: cell-based, human; settings: serum-free medium, 100 ng/ml IGF-I, 3 days
Procedure: Apoptosis was measured using the APO-BRDU staining kit (Phoenix Flow Systems, San Diego, Calif.) as previously described (Sueoka et al., 2000). Briefly, H1299 cells were untreated or infected with Ad5CMV or Ad5CMV-BP3, and then allowed to grow in serum-free medium or medium containing 10% serum or 100 ng/ml IGF-I for 3 days. Floating and adherent cells were analyzed using a FACScan flow cytometer (Becton Dickinson, San Jose, Calif.) to determine the percentage of apoptotic cells. The percentage of dead cells was determined by FACS analysis of propidium iodide-stained nuclei. Apoptosis was also determined by detecting of nucleosomal DNA fragmentation, which was measured using the TACS apoptotic DNA laddering kit (Trevigen, Inc., Gaithersburg, Md.) according to the manufacturer's protocol. Briefly, DNA was isolated from untreated or virus-infected H1299 cells by incubating the cells in lysis buffer. DNA samples were then subjected to electrophoresis on a 1.5% agarose gel and visualized by ethidium bromide staining. […] Apoptosis was measured using the APO-BRDU staining kit as described above.

chick embryo CAM = assay: Chorioallantoic membrane angiogenesis induced by bFGF; type: in vivo; settings: bFGF 50 ng alone, 72 h; positive eggs/total
Procedure: To assess whether IGFBP-3 is able to inhibit angiogenesis chick embryos were induced with IGFBP3 and dnIGFIR. On day 10, each CAM was exposed to bFGF (50 ng/disk) in the absence or presence of 10^4 particles of Ad5CMV alone, Ad5CMV-IGFBP3, or Ad5CMV-dnIGFIR. After 72 h of incubation, a fat emulsion was injected into the CAM to visualize the blood vessels. CAMs were examined with a microscope to count the positive responsive eggs which have spoke wheel-like vessels. Both IGFBP3 and dnIGFIR inhibited chorioallantoic membrane angiogenesis induced by bFGF FIG. 14. The results are expressed as the percentages of embryos showing activation (FIG. 14A). Positivity for angiogenesis in chick embryos subjected to various conditions was as follows: Collagen alone: 1/5; bFGF (50 ng): 5/5; EV(10^4)+bFGF: 7/8; IGFBP3(10^4)+bFGF: 4/9; dnAKT (10^4)+bFGF: 8/9; dnIGFR (10^4)+bFGF: 4/9; and KP372 (100 nM)+bFGF: 8/9.

`Nc1ncn([C@H]2C[C@H](O)[C@@H](CO)O2)c(=O)n1` [5-aza-dC] was tested, and the “concentration reactivating IGFBP-3 expression” value [1] was “More than 1 μM”.

With `CC1=C(/C=C/C(C)=C/C=C/C(C)=C/C(=O)Nc2ccc(O)cc2)C(C)(C)CCC1` [4-HPR, N-(4-hydroxyphenyl)retinamide, reference compound] the “levels of pAkt and pGSK-3β” value [2] was “did not alter levels of pAkt and pGSK-3β” and the “cell proliferation, control versus constitutively active Akt” value (1799 cells) was “no difference in cell proliferation”.

In the case of “IGF-II: IGF-II purchased from R&D Systems”, the “mitogenic effect on NSCLC cell growth” value (NSCLC cell lines) is reported as “minimal mitogenic effect”.

“IGFBP-3: insulin growth factor binding protein 3 secreted from Ad5CMV-BP3-infected H1299 cells” was tested, and the “binding of secreted IGFBP-3 to IGF-I” value (IGF-I) was “bound strongly”.

In the case of “IGF-I: insulin-like growth factor I, purchased from R&D Systems”, the “concentration inducing growth of NSCLC cell lines” value (NSCLC cell lines) is reported as > 10 ng/mL and the “effect on serum depletion-induced apoptosis” value (H1299 cells) is reported as “rescued H1299 cells from serum depletion-induced apoptosis”.

With “bFGF: angiogenesis inducer, 50 ng/disk, in the CAM assay” the “positivity for angiogenesis in chick embryos” value (chick embryo CAM) was 5/5.
